Assays:
redroot pigweed = assay: Test A pre-/postemergence greenhouse test; assay type: in vivo, Amaranthus retroflexus; details: for Pigweed plant response rating: 0 to 100 scale; for Plant response rating, Pigweed: 0 to 100 scale where 0 is no effect and 100 is complete control
Method in brief: (§1)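 Seeds sown in a loam soil–sand blend got a preemergence directed soil spray of compound in a non-phytotoxic solvent mixture containing surfactant. Postemergence sprays of the same formulation went at the same time onto plants 2–10 cm tall at the one- to two-leaf stage. Injury was scored visually against untreated controls after about ten days in the greenhouse.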

corn = assay: Test A pre-/postemergence greenhouse test; assay type: in vivo, Zea mays; details: for Corn plant response rating: 0 to 100 scale; for Plant response rating, Corn: 0 to 100 scale where 0 is no effect and 100 is complete control
Method in brief: as §1

blackgrass = assay: Test C pre-/postemergence test; assay type: in vivo, Alopecurus myosuroides; details: for Plant response rating, Blackgrass: 31 g ai/ha, scale 0 to 100 (0 no effect, 100 complete control)
Method in brief: (§2)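 Test chemicals were formulated with surfactant in a non-phytotoxic solvent and sprayed both on freshly planted seeds (preemergence) and on 1- to 4-leaf plants of 2–18 cm (postemergence). Flooded-paddy pots received compound directly into 3 cm of standing water, maintained for the test.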

wheat = assay: Test C pre-/postemergence test; assay type: in vivo, Triticum aestivum; details: for Plant response rating, Wheat: 31 g ai/ha, scale 0 to 100 (0 no effect, 100 complete control)
Method in brief: as §2

wild oat = assay: Test C pre-/postemergence test; assay type: in vivo, Avena fatua; details: for Plant response rating, Oat, Wild: 31 g ai/ha, scale 0 to 100 (0 no effect, 100 complete control)
Method in brief: as §2

catchweed bedstraw = assay: Test C pre-/postemergence test; assay type: in vivo, Galium aparine; details: for Plant response rating, Galium: 31 g ai/ha, scale 0 to 100 (0 no effect, 100 complete control)
Method in brief: as §2

bermudagrass = assay: Test C pre-/postemergence test; assay type: in vivo, Cynodon dactylon; details: for Plant response rating, Bermudagrass: 31 g ai/ha
Method in brief: as §2

Surinam grass = assay: Test C pre-/postemergence test; assay type: in vivo, Brachiaria decumbens; details: for Plant response rating, Surinam Grass: 31 g ai/ha, scale 0 to 100 (0 no effect, 100 complete control)
Method in brief: as §2

crabgrass = assay: Test C pre-/postemergence test; assay type: in vivo, Digitaria sanguinalis; details: for Plant response rating, Crabgrass, Large: 31 g ai/ha, scale 0 to 100 (0 no effect, 100 complete control)
Method in brief: as §2

kochia = assay: Test C pre-/postemergence test; assay type: in vivo, Kochia scoparia; details: for Plant response rating, Kochia: 31 g ai/ha, scale 0 to 100 (0 no effect, 100 complete control)
Method in brief: as §2

eastern black nightshade = assay: Test C pre-/postemergence test; assay type: in vivo, Solanum ptycanthum; details: for Plant response rating, Nightshade: 31 g ai/ha, scale 0 to 100 (0 no effect, 100 complete control)
Method in brief: as §2

pigweed = assay: Test C pre-/postemergence test; assay type: in vivo, Amaranthus retroflexus; details: for Plant response rating, Pigweed: 31 g ai/ha, scale 0 to 100 (0 no effect, 100 complete control)
Method in brief: as §2

[1] = test system: common (oilseed) sunflower; assay: Test C pre-/postemergence test; assay type: in vivo, Helianthus annuus; details: for Plant response rating, Sunflower: 31 g ai/ha, scale 0 to 100 (0 no effect, 100 complete control)
Method in brief: as §2

velvetleaf = assay: Test C pre-/postemergence test; assay type: in vivo, Abutilon theophrasti; details: for Plant response rating, Velvetleaf: 31 g ai/ha, scale 0 to 100 (0 no effect, 100 complete control)
Method in brief: as §2

rice = assay: Test C flooded paddy test; assay type: in vivo, Oryza sativa; details: Flood
Method in brief: (§3)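 Flooded 3 cm over soil; compound into paddy water; depth kept constant. Greenhouse 13–15 d.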

duck salad = assay: Test C flooded paddy test; assay type: in vivo, Heteranthera limosa; details: Flood
Method in brief: as §3

barnyardgrass = assay: Test C flooded paddy test; assay type: in vivo, Echinochloa crus-galli; details: Flood
Method in brief: as §3

[2] = Postemergence, 125 g ai/ha, 0 is no effect, 100 is complete control
[3] = Postemergence, 500 g ai/ha, 0 is no effect, 100 is complete control
[4] = Preemergence, 125 g ai/ha, 0 no effect, 100 complete control
[5] = 62 g ai/ha, Preemergence, scale 0 to 100
[6] = preemergence, 125 g ai/ha, scale 0 (no effect) to 100 (complete control)
[7] = 62 g ai/ha, Preemergence, scale 0 to 100 (0 no effect, 100 complete control)
[8] = Preemergence, scale 0 to 100 (0 no effect, 100 complete control)
[9] = 31 g ai/ha, scale 0 to 100 (0 no effect, 100 complete control)
[10] = 62 g ai/ha, scale 0 to 100, 0 no effect, 100 complete control, 13 to 15 days
[11] = 125 g ai/ha, scale 0 to 100, 0 no effect, 100 complete control, 13 to 15 days
[12] = 250 g ai/ha, scale 0 to 100, 0 no effect, 100 complete control, 13 to 15 days
[13] = 125 g ai/ha, preemergence, scale 0 (no effect) to 100 (complete control)
[14] = preemergence, 250 g ai/ha, scale 0 (no effect) to 100 (complete control)

Cc1cc[n+]([O-])c(S(=O)(=O)Cc2c(C(F)(F)F)nn(C)c2OCC(F)(F)F)c1 [Compound 31]
80: Pigweed plant response rating (redroot pigweed; [2]) | Pigweed plant response rating (redroot pigweed; [3]) | Blackgrass plant response rating (blackgrass; [5]) | Plant response rating, Ducksalad (duck salad; [11])
45: Plant response rating, Ducksalad (duck salad; [9]) | Plant response rating, Ducksalad (duck salad; [10])
55: Plant response rating, Velvetleaf (velvetleaf; Preemergence)
30: Wheat plant response rating (wheat; [5]) | Plant response rating, Barnyardgrass (barnyardgrass; [11])
50: Plant response rating, Corn (corn; Preemergence, 500 g ai/ha)
100: Pigweed plant response rating (redroot pigweed; [4]) | Plant response rating, Pigweed (redroot pigweed; Preemergence, 500 g ai/ha) | Plant response rating (0 to 100), Blackgrass (blackgrass; Preemergence, 250 g ai/ha) | Blackgrass plant response rating (blackgrass; [6]) | Galium plant response rating (catchweed bedstraw; [5]) | Plant response rating, Galium (catchweed bedstraw; Preemergence) | Plant response rating (0 to 100), Galium (catchweed bedstraw; Preemergence, 250 g ai/ha) | Bermudagrass plant response rating (bermudagrass; [7]) | Plant response rating, Bermudagrass (bermudagrass; [8]) | Plant response rating (0 to 100), Bermudagrass (bermudagrass; Preemergence, 250 g ai/ha) | Bermudagrass plant response rating (bermudagrass; [6]) | Surinam Grass plant response rating (Surinam grass; [5]) | Crabgrass, Large plant response rating (crabgrass; [5]) | Plant response rating, Crabgrass, Large (crabgrass; Preemergence) | Plant response rating (0 to 100), Crabgrass, Large (crabgrass; Preemergence, 250 g ai/ha) | Kochia plant response rating (kochia; [5]) | Plant response rating, Kochia (kochia; Preemergence) | Pigweed plant response rating (pigweed; [5]) | Plant response rating, Pigweed (pigweed; Preemergence) | Velvetleaf plant response rating (velvetleaf; [5])
90: Plant response rating, Ducksalad (duck salad; [12])
75: Plant response rating, Barnyardgrass (barnyardgrass; [12])
0: Corn plant response rating (corn; [4]) | Plant response rating, Wheat (wheat; Preemergence) | Plant response rating, Rice (rice; [9]) | Plant response rating, Rice (rice; [10]) | Plant response rating, Barnyardgrass (barnyardgrass; [9]) | Plant response rating, Barnyardgrass (barnyardgrass; [10])
20: Sunflower plant response rating [1, 5] | Plant response rating, Sunflower ([1]; Preemergence)
5: Plant response rating, Oat, Wild (wild oat; Preemergence)
60: Plant response rating, Blackgrass (blackgrass; Preemergence) | Oat, Wild plant response rating (wild oat; [5]) | Plant response rating, Rice (rice; [11])
70: Plant response rating, Rice (rice; [12])
95: Nightshade plant response rating (eastern black nightshade; [5]) | Plant response rating, Nightshade (eastern black nightshade; Preemergence)
40: Corn plant response rating (corn; [2]) | Corn plant response rating (corn; [3])
85: Plant response rating, Surinam Grass (Surinam grass; Preemergence)

Cn1nc(C(F)(F)F)c(C[S+]([O-])c2cc(F)cc[n+]2[O-])c1Cl (racemic) [Compound 42]
98: Blackgrass plant response rating (blackgrass; [14])
85: Surinam Grass plant response rating (Surinam grass; [13]) | Plant response rating, Ducksalad (duck salad; [10]) | Plant response rating, Ducksalad (duck salad; [11])
100: Pigweed plant response rating (redroot pigweed; [4]) | Plant response rating, Pigweed (redroot pigweed; Preemergence, 500 g ai/ha) | Galium plant response rating (catchweed bedstraw; [13]) | Galium plant response rating (catchweed bedstraw; [14]) | Bermudagrass plant response rating (bermudagrass; [7]) | Bermudagrass plant response rating (bermudagrass; [13]) | Bermudagrass plant response rating (bermudagrass; [14]) | Surinam Grass plant response rating (Surinam grass; [14]) | Crabgrass, Large plant response rating (crabgrass; [5]) | Crabgrass, Large plant response rating (crabgrass; [13]) | Crabgrass, Large plant response rating (crabgrass; [14]) | Kochia plant response rating (kochia; [5]) | Kochia plant response rating (kochia; [13]) | Plant response rating, Kochia (kochia; Preemergence) | Kochia plant response rating (kochia; [14]) | Nightshade plant response rating (eastern black nightshade; [13]) | Nightshade plant response rating (eastern black nightshade; [14]) | Pigweed plant response rating (pigweed; [5]) | Pigweed plant response rating (pigweed; [13]) | Plant response rating, Pigweed (pigweed; Preemergence) | Pigweed plant response rating (pigweed; [14]) | Velvetleaf plant response rating (velvetleaf; [14])
15: Plant response rating, Rice (rice; [10])
30: Sunflower plant response rating [1, 13]
50: Oat, Wild plant response rating (wild oat; [13]) | Galium plant response rating (catchweed bedstraw; [5])
0: Corn plant response rating (corn; [2]) | Corn plant response rating (corn; [4]) | Plant response rating, Corn (corn; Preemergence, 500 g ai/ha) | Wheat plant response rating (wheat; [5]) | Plant response rating, Wheat (wheat; Preemergence) | Plant response rating, Oat, Wild (wild oat; Preemergence) | Plant response rating, Galium (catchweed bedstraw; Preemergence) | Sunflower plant response rating [1, 5] | Plant response rating, Sunflower ([1]; Preemergence) | Plant response rating, Velvetleaf (velvetleaf; Preemergence) | Plant response rating, Rice (rice; [9]) | Plant response rating, Barnyardgrass (barnyardgrass; [9]) | Plant response rating, Barnyardgrass (barnyardgrass; [10])
5: Oat, Wild plant response rating (wild oat; [5])
90: Oat, Wild plant response rating (wild oat; [14]) | Plant response rating, Ducksalad (duck salad; [12])
55: Plant response rating, Barnyardgrass (barnyardgrass; [12])
40: Plant response rating, Barnyardgrass (barnyardgrass; [11])
25: Plant response rating, Rice (rice; [11])
95: Blackgrass plant response rating (blackgrass; [13]) | Plant response rating, Crabgrass, Large (crabgrass; Preemergence)
70: Pigweed plant response rating (redroot pigweed; [3]) | Corn plant response rating (corn; [3]) | Blackgrass plant response rating (blackgrass; [5]) | Plant response rating, Blackgrass (blackgrass; Preemergence) | Wheat plant response rating (wheat; [14]) | Plant response rating, Bermudagrass (bermudagrass; [8]) | Velvetleaf plant response rating (velvetleaf; [13]) | Plant response rating, Rice (rice; [12]) | Plant response rating, Ducksalad (duck salad; [9])
80: Surinam Grass plant response rating (Surinam grass; [5]) | Nightshade plant response rating (eastern black nightshade; [5]) | Plant response rating, Nightshade (eastern black nightshade; Preemergence) | Sunflower plant response rating [1, 14]
10: Wheat plant response rating (wheat; [13])
60: Pigweed plant response rating (redroot pigweed; [2]) | Plant response rating, Surinam Grass (Surinam grass; Preemergence) | Velvetleaf plant response rating (velvetleaf; [5])

Source: patent US20100298141A1, “SUBSTITUTED PYRIDINE N-OXIDE HERBICIDES” (E. I. DU PONT DE NEMOURS AND COMPANY, priority 2007, published 2010)
